In PMC10290391, “Targeted degradation of ⍺-synuclein aggregates in Parkinson’s disease using the AUTOTAC technology” (Molecular Neurodegeneration, 2023):
Where “and” joins values, the source holds several entries; their conditions need not be identical. Equal entries are not always repeated. Entries after “also recorded” stand apart in the source; their conditions may differ.

How the values were obtained:
SH-SY5Y α-syn A53T cells = assay: MitoTracker Red analysis in SH-SY5Y α-syn A53T cells treated with rotenone; assay type: cell-based, human; conditions: 0.1 μM, 24 h; vs vehicle-treated cells
Description: Adenovirus overexpressing human wild-type SNCA was kindly gifted from the lab of S.J.L. COS7 cells were infected with the adenovirus overexpressing human α-syn at 0.8 × 10^8 pfu and incubated at 37 °C for 24 h. When the confluency reached 90%, the cells were split onto 6-well plates for further experiments. The α-syn aggregation was induced by the treatment of 100 nM rotenone (Sigma-Aldrich, R8875) for 56 h. For the MitoTracker analyses in SH-SY5Y α-syn A53T cells, rotenone was treated at 1 µM for 48 h with the co-treatment of 100 nM ATC161 for 24 h, then MitoTracker Red CMXRos (Invitrogen; M7512) was used to stain intact mitochondria following the manufacturer’s instruction.

insoluble α-syn species = assay: Triton X-100 fractionation assay in primary rat cortex neurons; assay type: cell-based
Description: All procedures were conducted according to the IACUC and were approved by Seoul National University Institutional Animal Care and Use Committee. Rat cortex primary neuron were prepared from E16 Sprague–Dawley rat embryos (Orient Bio). Anesthetized […] were sacrificed by cervical dislocation, and embryos were removed. Cortices were dissected on the ice. Neurons were trypsinized, dissociated and plated onto poly-d-lysine coated cover slips at a density of 5 × 10^4 cells per cm^2 per 12-well plate or 6-well plate. Primary neurons were maintained in Neurobasal A medium containing 2% B27, 0.5 mM glutamax and antibiotics. Cells at 7 DIV were treated with h-α-syn PFF (1 µg/mL) for 14 d.
(§1) For the separation of Triton X-100 soluble and insoluble fractions for monitoring α-syn, cells were washed with PBS and lysed in Triton X-100 buffer (50 mM Tris / 150 mM NaCl / 100 mM EDTA / 1% Triton X-100, pH 7.6) containing protease and phosphatase inhibitors for 30 min on ice. The lysates were centrifuged at 12,000 rpm for 30 min, and the soluble supernatant was taken. The remaining pellets were washed with Triton X-100 buffer, followed by centrifugation at 12,000 rpm for 20 min. […] Immunoreactive bands were detected using ECL reagents (Thermo Fisher Scientific, 32,106). […] Densitometry of developed bands was analyzed with ImageJ (NIH, Bethesda).

[1] = system: extracellular total α-syn; assay: ELISA of extracellular α-syn in conditioned media of SH-SY5Y α-syn A53T cells; assay type: cell-based, human
Description: The conditioned medium was collected from differentiated SH-SY5Y cells infected with adenovirus overexpressing human α-syn. Following 24 h infection, the medium was replaced with fresh media containing DMSO or ATC161. The medium was collected after 24 h and centrifuged at 1,000 rpm to remove cell debris and dead cells. The supernatant was concentrated using Amicon 10 K MWCO filters (Millipore, Billerica, MA). The amounts of α-syn in conditioned medium were measured by enzyme-linked immunosorbent assay (ELISA) with an ELISA kit (Abcam, human α-syn ELISA kit, ab260052) following the provider’s instruction. The subsets of collected media were treated to fresh SH-SY5Y cells in order to determine the level of α-syn propagated to the fresh cells.

p62 and α-syn aggregates = molecular target: T1, p62 and α-syn aggregates (Homo sapiens, UniProt P37840+Q13501); assay: Proximity ligation assay (PLA) of p62 and α-syn in HEK293A cells; assay type: cell-based; conditions: 1 μM, 6 h
T1 construct: Recombinant human α-syn (1–140) were obtained from NKMAX (SNA2001L); endogenous in cells; host or cells: HEK293A cells transduced with h-α-syn PFFs
Description: Proximity ligation assays were conducted using a PLA kit (Sigma-Aldrich) according to the manufacturer’s protocol. 293A Cells were seeded on coverslips and cultured for 24 h. After fixation with 4% PFA, the cells were permeabilized with 0.1% Triton X-100. The cells were incubated with antibodies for p62 (Abcam; ab56319) and alpha-synuclein aggregates (Abcam; ab209538) overnight at 4 °C. After washing with PLA washing buffer, the cells were hybridized, ligated and amplified by rolling circle. Coverslips were mounted on slides using mounting medium containing DAPI, and the images were captured by confocal microscopy (Zeiss).

α-syn aggregates = assay: Triton X-100 fractionation assay in SH-SY5Y α-syn A53T cells transduced with α-syn PFFs; assay type: cell-based, human
Description: Recombinant human α-syn (1–140) were obtained from NKMAX (SNA2001L). In vitro fibrillization was performed by diluting recombinant α-syn monomers to 1 mg/mL in sterile PBS, then incubating at 37 °C with constant agitation at 1,000 rpm for seven days. The fibrillization was verified by thioflavin T and sedimentation assays. The ability to form phospho-α-syn (S129) was also assessed by immunocytochemistry. In addition, to determine whether the generated PFFs act as seeds to accumulate endogenous α-syn, an adenovirus that expresses c-Myc-His-tagged human α-syn (gifted from lab of S.J.L) was used to infect cultured cells at an MOI of 10, followed by a fractionation assay. The administration of PFFs into 293A cells was done with protein delivery reagent (BioPORTER QuikEase Protein Delivery Kit, Sigma) following the provider’s instruction. The mouse α-syn PFFs were obtained from StressMarq (SPR-324). […]
as §1, with “ice.” for “ice. The lysates were centrifuged at 12,000 rpm for 30 min, and the soluble supernatant was taken. The remaining pellets were washed with Triton X-100 buffer, followed by centrifugation at 12,000 rpm for 20 min.”

Fc1ccc(COc2cccc(CNCCOCCOCCNc3cccc(-c4cc(-c5ccc6c(c5)OCO6)n[nH]4)c3)c2)cc1 [ATC161, 3-(3-(benzo[d][1,3]dioxol-5-yl)-1H-pyrazol-5-yl)-N-(2-(2-(2-((3-((4-fluorobenzyl)oxy)benzyl)amino)ethoxy)ethoxy)ethyl)aniline]
MitoTracker fluorescence (mitochondrial integrity) (SH-SY5Y α-syn A53T cells): increased level of MitoTracker signals | concentration of lysosomal degradation of aggregates (insoluble α-syn species; PD model cells (discussion)): 10 nM | concentration from which insoluble α-syn species are targeted (insoluble α-syn species; primary rat cortex neurons, soluble monomeric form intact): 10 nM | reduction of relative level of extracellular total α-syn [1]: 50% | PLA+ signals of p62 with α-syn monomers (p62 and α-syn aggregates; cells transduced with α-syn monomers): failed to induce PLA^+ signals | interaction between p62 and α-syn aggregates (PLA puncta) (p62 and α-syn aggregates; α-syn PFF-transduced cells): dramatically increased the number and sizes of PLA puncta | DC50 (α-syn aggregates; Triton X-100 insoluble fraction, read-out: half degradation concentration (DC50) of α-syn aggregates): ~100 nM and 100 nM | degradation of monomeric α-syn (α-syn aggregates; soluble fraction): No apparent degradation; also recorded: no such degradation was observed
